From ChEMBL document CHEMBL2163283, “Design and synthesis of novel stiripentol analogues as potential anticonvulsants” (Eur J Med Chem, 2012)
Calls of active or inactive are those of the source. No cut-off for these calls is given here.

Assays:
Mus musculus [1] = experiment: Neurotoxicity in Swiss albino mouse assessed as effect on hindlimb grip strength at 346 umol/kg, sc administered measured every 15 mins for 2 hrs; assay type: toxicity, organism-based; conditions: in vivo
Mus musculus [2] = experiment: Anticonvulsant activity in Swiss albino mouse assessed as protection against subcutaneous pentylenetetrazol-induced seizures at 346 umol/kg, ip administered 30 mins before pentylenetetrazole challenge measured after 30 mins; assay type: functional
Mus musculus [3] = experiment: Anticonvulsant activity in Swiss albino mouse assessed as protection against subcutaneous pentylenetetrazol-induced seizures at 346 umol/kg, ip administered 30 mins before pentylenetetrazole challenge measured after 30 mins relative to stiripentol; assay type: functional
Mus musculus [4] = experiment: Anticonvulsant activity in Swiss albino mouse assessed as maximal electroshock-induced seizures at 346 umol/kg, ip administered 30 mins before electroshock challenge; assay type: functional
Mus musculus [5] = experiment: Anticonvulsant activity in ip dosed Swiss albino mouse assessed as maximal electroshock-induced seizures administered 30 mins before electroshock challenge; assay type: functional
Mus musculus [6] = experiment: Neurotoxicity in Swiss albino mouse assessed as climbing response to inverted mesh at 346 umol/kg, sc administered measured every 15 mins for 2 hrs by wire mesh grasping test; assay type: toxicity, organism-based; conditions: in vivo
Mus musculus [7] = experiment: Anticonvulsant activity in Swiss albino mouse assessed as protection against subcutaneous pentylenetetrazol-induced seizures at 410 umol/kg, ip administered 30 mins before pentylenetetrazole challenge measured after 30 mins relative to stiripentol; assay type: functional
Mus musculus [8] = experiment: Anticonvulsant activity in Swiss albino mouse assessed as protection against subcutaneous pentylenetetrazol-induced seizures at 410 umol/kg, ip administered 30 mins before pentylenetetrazole challenge measured after 30 mins; assay type: functional
Mus musculus [9] = experiment: Anticonvulsant activity in Swiss albino mouse assessed as maximal electroshock-induced seizures at 410 umol/kg, ip administered 30 mins before electroshock challenge; assay type: functional
Mus musculus [10] = experiment: Anticonvulsant activity in Swiss albino mouse assessed as maximal electroshock-induced seizures at 330 umol/kg, ip administered 30 mins before electroshock challenge; assay type: functional
Mus musculus [11] = experiment: Anticonvulsant activity in Swiss albino mouse assessed as protection against subcutaneous pentylenetetrazol-induced seizures at 330 umol/kg, ip administered 30 mins before pentylenetetrazole challenge measured after 30 mins relative to stiripentol; assay type: functional
Mus musculus [12] = experiment: Anticonvulsant activity in Swiss albino mouse assessed as protection against subcutaneous pentylenetetrazol-induced seizures at 330 umol/kg, ip administered 30 mins before pentylenetetrazole challenge measured after 30 mins; assay type: functional
Mus musculus [13] = experiment: Anticonvulsant activity in Swiss albino mouse assessed as protection against subcutaneous pentylenetetrazol-induced seizures at 370 umol/kg, ip administered 30 mins before pentylenetetrazole challenge measured after 30 mins relative to stiripentol; assay type: functional
Mus musculus [14] = experiment: Anticonvulsant activity in Swiss albino mouse assessed as protection against subcutaneous pentylenetetrazol-induced seizures at 370 umol/kg, ip administered 30 mins before pentylenetetrazole challenge measured after 30 mins; assay type: functional
Mus musculus [15] = experiment: Anticonvulsant activity in Swiss albino mouse assessed as maximal electroshock-induced seizures at 370 umol/kg, ip administered 30 mins before electroshock challenge; assay type: functional, organism-based
Mus musculus [16] = experiment: Anticonvulsant activity in Swiss albino mouse assessed as protection against subcutaneous pentylenetetrazol-induced seizures at 390 umol/kg, ip administered 30 mins before pentylenetetrazole challenge measured after 30 mins relative to stiripentol; assay type: functional
Mus musculus [17] = experiment: Anticonvulsant activity in Swiss albino mouse assessed as protection against subcutaneous pentylenetetrazol-induced seizures at 390 umol/kg, ip administered 30 mins before pentylenetetrazole challenge measured after 30 mins; assay type: functional
Mus musculus [18] = experiment: Anticonvulsant activity in Swiss albino mouse assessed as maximal electroshock-induced seizures at 390 umol/kg, ip administered 30 mins before electroshock challenge; assay type: functional, organism-based
Mus musculus [19] = experiment: Anticonvulsant activity in Swiss albino mouse assessed as maximal electroshock-induced seizures at 340 umol/kg, ip administered 30 mins before electroshock challenge; assay type: functional
Mus musculus [20] = experiment: Anticonvulsant activity in Swiss albino mouse assessed as protection against subcutaneous pentylenetetrazol-induced seizures at 340 umol/kg, ip administered 30 mins before pentylenetetrazole challenge measured after 30 mins; assay type: functional
Mus musculus [21] = experiment: Anticonvulsant activity in Swiss albino mouse assessed as protection against subcutaneous pentylenetetrazol-induced seizures at 340 umol/kg, ip administered 30 mins before pentylenetetrazole challenge measured after 30 mins relative to stiripentol; assay type: functional
Mus musculus [22] = experiment: Anticonvulsant activity in Swiss albino mouse assessed as maximal electroshock-induced seizures at 357 umol/kg, ip administered 30 mins before electroshock challenge; assay type: functional
Mus musculus [23] = experiment: Anticonvulsant activity in Swiss albino mouse assessed as protection against subcutaneous pentylenetetrazol-induced seizures at 357 umol/kg, ip administered 30 mins before pentylenetetrazole challenge measured after 30 mins; assay type: functional
Mus musculus [24] = experiment: Anticonvulsant activity in Swiss albino mouse assessed as protection against subcutaneous pentylenetetrazol-induced seizures at 357 umol/kg, ip administered 30 mins before pentylenetetrazole challenge measured after 30 mins relative to stiripentol; assay type: functional

What does the source list for `CC(C)(C)C(/C=C/c1ccc2c(c1)OCO2)=N/NC(N)=O`?
Activity (Mus musculus [1]): Toxic; Activity (Mus musculus [2]): 50%; Activity (Mus musculus [3]): 1.42%; Activity (Mus musculus [4]): 100%; ED50 (Mus musculus [5]): 87 mg/kg; Activity (Mus musculus [6]): Toxic

Which results are given for `CC(C)(C)C(/C=C/c1ccc2c(c1)OCO2)=N/NC(=O)Nc1ccccc1`?
Activity (Mus musculus [7]): 1.3%; Activity (Mus musculus [8]): 66%; Activity (Mus musculus [9]): inactive

For `CC(C)(C)C(/C=C/c1ccc2c(c1)OCO2)=N/NC(=O)Nc1ccc(Br)cc1`, which Activity (Mus musculus [10]) is on record?
The Activity was 16%.

And the Activity (Mus musculus [11])?
The Activity was 1.6%.

What about the Activity (Mus musculus [12]) of the same compound?
The Activity was 66%.

What does the source list for `CC(C)(C)C(/C=C/c1ccc2c(c1)OCO2)=N/NC(=O)Nc1ccc(Cl)cc1`?
Activity (Mus musculus [13]): 1.15%; Activity (Mus musculus [14]): 33%; Activity (Mus musculus [15]): inactive

How did the Activity (Mus musculus [16]) turn out when `Cc1ccc(NC(=O)N/N=C(\C=C\c2ccc3c(c2)OCO3)C(C)(C)C)cc1` was run?
Its Activity is 0.98 ratio to stiripentol.

And the Activity (Mus musculus [17])?
The Activity was 16%.

And the Activity (Mus musculus [18])?
Its Activity is “inactive”.

What does the source list for `Cc1ccccc1NC(=O)N/N=C(\C=C\c1ccc2c(c1)OCO2)C(C)(C)C`?
Activity (Mus musculus [16]): 1.48 ratio to stiripentol; Activity (Mus musculus [17]): 83%; Activity (Mus musculus [18]): inactive

Which results are given for `CC(C)(C)C(/C=C/c1ccc2c(c1)OCO2)=N/NC(=O)Nc1ccc(Cl)cc1Cl`?
Activity (Mus musculus [19]): 16%; Activity (Mus musculus [20]): 33%; Activity (Mus musculus [21]): 1.26%

For `CC(C)(C)C(/C=C/c1ccc2c(c1)OCO2)=N/NC(=O)Nc1ccc(F)cc1`, which Activity (Mus musculus [16]) is on record?
Its Activity is 1.26 ratio to stiripentol.

And the Activity (Mus musculus [17])?
Its Activity is 50%.

And the Activity (Mus musculus [18])?
The Activity was “inactive”.

For `Cc1ccccc1C(=O)N1N=C(C(C)(C)C)CC1c1ccc2c(c1)OCO2` (racemic), which Activity (Mus musculus [7]) is on record?
Its Activity is “inactive”.

What about the Activity (Mus musculus [8]) of the same compound?
Its Activity is “inactive”.

And the Activity (Mus musculus [9])?
The Activity was 16%.

How did the Activity (Mus musculus [22]) turn out when `CC(C)(C)C1=NN(C(=O)c2ccc(Cl)cc2Cl)C(c2ccc3c(c2)OCO3)C1` (racemic) was run?
Its Activity is 16%.

What about the Activity (Mus musculus [23]) of the same compound?
The Activity was 33%.

And the Activity (Mus musculus [24])?
Its Activity is 1.19%.

What does the source list for `CC(C)(C)C1=NN(C(=O)Nc2ccccc2)C(c2ccc3c(c2)OCO3)C1` (racemic)?
Activity (Mus musculus [7]): 1.3%; Activity (Mus musculus [8]): 66%; Activity (Mus musculus [9]): 16%

How did the Activity (Mus musculus [10]) turn out when `CC(C)(C)C1=NN(C(=O)Nc2ccc(Br)cc2)C(c2ccc3c(c2)OCO3)C1` (racemic) was run?
The Activity was “inactive”.

What about the Activity (Mus musculus [11]) of the same compound?
The Activity was 1.29%.

And the Activity (Mus musculus [12])?
Its Activity is 33%.
